Laboratory results as given in patent US20190321496A1, “AGENTS AND METHODS FOR THE DIAGNOSIS AND TREATMENT OF DISEASES ASSOCIATED WITH EXTRACELLULAR MATRIX TURNOVER” (Baker IDI Heart and Diabetes Institute Holdings Limited, priority 2016, published 2019).

Assays:
unstable plaques = assay: In vivo treatment of tandem stenosis mice, plaque collagen quantification (Picrosirius Red); set-up: species or system mouse; conditions: tandem stenosis ApoE knock out mice, 2 tail vein injections 2 weeks apart, killed 2 weeks after second dose, PBS 14.40±4.522
Experimental: As described elsewhere herein, at 12 weeks of age and 6 weeks after commencement of high fat diet, ApoE−/− mice (C57BL/6J background) were anaesthetized by intraperitoneal injection of a mixture of ketamine (100 mg/kg) and xylazine (10 mg/kg). An incision was made in the neck and the right common carotid artery exposed by dissecting away circumferential connective tissue. A tandem stenosis with 150 μm outer diameter was introduced with the distal stenosis placed 1 mm from the carotid artery bifurcation and the proximal stenosis 3 mm from the distal stenosis. A 6-0 blue braided polyester fibre suture was tied around the carotid artery and a 150 μm needle to achieve the stenosis diameter of 150 μm and the needle was subsequently removed after the suture was secured. The incision wound was sutured close and the mice resumed their high fat diet. […]
Collagen quantification of the Picrosirius Red slides were performed using Image J software (National Institute of Health USA). […] For each section, the quantity of plaque collagen is expressed as the percentage of collagen within the plaque: […]
All quantitative data was analysed by PRISM 6 (GraphPad Software Inc.) and reported as mean +/− one standard deviation. […] Unpaired t test with Welch's correction was also used to analyse the collagen quantification data for the mouse in vivo treatment experiments. […]

MMP14 = assay: Assay of MMP14 activity (FRET peptide) in HT1080 cells treated with Naphthofluorescein; type: cell-based, human; conditions: n=3, untreated cells 473.7±20.93
Experimental: Detection of Cy 3.5 signals of the MMP14 FRET peptide was performed using the FLUOstar OPTIMA BMG LABTECH 96 microplate fluorescence reader standardized for optic settings of excitation 544 nm and emission 590 nm, temperature settings at 37° C., with readings taken every 10 minutes over a 120 minute duration and double orbital shaking at a width of 4 mm 1 second prior to each cycle. All confocal live cell studies were performed using the Nikon Air inverted microscope (Tokyo, Japan) with live cell imaging chamber (designed by Monash Micro imaging). Tissue sections were obtained by cryo-sectioning frozen tissue using the Leica CM1950 cryostat (Leica Microsystems, Germany).
A peptide sequence that is preferentially cleaved by MMP14 was used to create a FRET probe with N terminal Cy3.5 and C terminal BHQ (Black Hole Quencher): Cy3.5 SGRIGFLRTACBHQ2 (SEQ ID NO:13). The presence of MMP14 activity cleaves this peptide and separates the Cy3.5 from BHQ. […] The cells were centrifuged at 4000 rcf for 5 minutes, cell pellet was resuspended in PBS containing calcium and magnesium and counted using a haemocytometer. […] The 96 well microplate was incubated at 37° C. inside the FluorSTAR Optima fluorescent microplate reader for 2 hours while Cy 3.5 signal readings in the (Ex544, Em590) channel were taken every 10 minutes. […] The readings were plotted as bar charts in Prism software. […]

Q: What does the source list for O=C1OC2(c3ccccc31)c1ccc3cc(O)ccc3c1Oc1c2ccc2cc(O)ccc12 [Naphthofluorescein]?
A: collagen percentage of the plaque area (unstable plaques): 18.87+5.308 percentage of the plaque area; Cy3.5 increase (MMP14 FRET peptide) (MMP14; HT1080 cells treated with 20 μM unaltered free Naphthofluorescein for 1 week, time zero to 120 minutes): 125.0±17.04; Cy3.5 increase (MMP14 FRET peptide), pH 5 rendered drug (MMP14; HT1080 cells, Naphthofluorescein pre-treated in HCl solution at pH 5 for 30 minutes then neutralised with NaOH): 126.7±2.728
